Entries after “also recorded” stand apart in the source; their conditions may differ.
Assays:
[1] = test system: mRCC; type: in vivo, human
From the text: Some patients received a prior TKI therapy with sunitinib or sorafenib, others a prior cytokine therapy with interferon or interleukin.
Both patient groups were followed up for progression-free survival (PFS) and overall survival (OS).

[2] = test system: HLA-A*02 positive tumor cells endogenously expressing Cyclin D1; conditions: allo-restricted T cells of HLA-A2-negative donors; cited from earlier work
[3] = test system: CTL; conditions: healthy donors, colon cancer and mantle cell lymphoma patients; autologous CD40-activated B cells as APCs; cited from earlier work
[4] = test system: HLA class-II; assay: Binding to HLA class-II; set-up: species or system human

Question: Which “effect of prior low-dose cyclophosphamide treatment on outcome of vaccine treatment” value ([1]; cyclophosphamide 300 mg/m2 single infusion before vaccination) does the source give for O=P1(N(CCCl)CCCl)NCCCO1 (stereo not shown) [cyclophosphamide] here?
Answer: further significantly improved the outcome

Question: Which results are given for “LLGATCMFV (listed as Homo sapiens) [CCN-001, cyclin D1-derived peptide, aa 101-109]”?
Answer: survival of patients responding against CCN-001 versus non-CCN-001-responding patients ([1]; all vaccinated patients): significant longer survival; also recorded: survive significantly longer; favorable effect of T cell response against CCN-001 on survival ([1]; patient group pretreated with cyclophosphamide): even more evident; lysis of tumor cells by T cell clones recognizing the peptide [2]: could lyse HLA-A*02 positive tumor cells endogenously expressing Cyclin D1; generation of epitope-specific CTL [3]: could be generated from HLA-A2+ donors

Question: Which HLA restriction [4] does the source give for “NPPSMVAAGSVVAAV (listed as Homo sapiens) [CCN-003, cyclin D1-derived peptide, aa 198-212]” here?
Answer: appears DRB1*0401 restricted

Question: And the “binding to HLA class-II” value [4]?
Answer: binds to HLA class-II
